# “Also recorded” adds a separate entry of the source.
# Experiments:
# [1] = test system: HPPD, VTE1 and VTE3 gene expression in Arabidopsis seedlings; test: qRT-PCR of HPPD and vitamin E biosynthesis genes in Arabidopsis after herbicide treatment; type: in vivo, Arabidopsis thaliana; settings: 250 nM, 6 h
# Procedure: 2 week-old T3 generation seedlings of WT, OE At, OE Pa and OE M3 were used as materials to set up a treatment group and a control group, respectively, wherein the treatment group was continuously cultured in ½ MS liquid medium containing 250 nM mesotrione for 6 h. The total RNA of related materials was extracted using Super Fast Plant RNA Extraction Kit (Beijing Huayueyang Biological Technology Co., Ltd., China). The concentration of RNA samples was measured using NanoDrop ND1000 (Thermo Scientific, USA). RNA samples with an absorbance ratio (at wavelengths of 260/280 nm and 260/230 nm) of approximately 2.0 were selected. The total RNA (1,000 ng) was then used for synthesis of cDNA for reverse transcription using a cDNA synthesis kit (One-step Removal of Transcript gDNA and cDNA Synthesis Super Kit, TransGen).
# As for quantitative reverse transcription PCR analysis, 3.0 μL cDNA was used as a template in a 20 μL reaction system to detect the expression levels of HPPD as well as VTE1 and VTE3 genes which encode the key enzymes in the biosynthesis of vitamin E, and actin was used as an internal reference gene. Three technical repetitions were performed on the Bio-Rad CFX96 real-time system. REST software was used for statistical analysis.
# [2] = test system: WT and T0 OE SDM rice leaves; test: Malondialdehyde content in rice leaves; type: in vivo; settings: 200 μM spray, 1 week
# Procedure: Malondialdehyde (MDA) is an important marker of the degree of oxide film damage. The previous method (Heath and Packer, 1968) for the determination of malondialdehyde content was referred with slight modifications. 1 g of rice leaves were accurately weighed and place to a pre-cooling mortar. 10 mL of pre-cooling 10% trichloroacetic acid (TCA, v/v) was added and grind thoroughly. Then the lapping solution was transfered to a 10 mL centrifuge tube and centrifuged at 4000 rpm for 10 min (4° C.). 2 mL of supernatant was pipetted and mixed with an equal volume of 0.6% 2-Thiobarbituric acid (TBA, v/v), and incubated at 100° C. for 15 min.
# Then the reaction solution was cooled at room temperature. The cooled reaction solution was centrifuged at 4000 rpm for 10 min (4° C.). The supernatant was taken and measured absorbance at wavelengths of 450 nm, 532 nm and 600 nm using ultraviolet spectrophotometers, respectively. Each sample was repeated 3 times. The unit of MDA content is nmol g^−1 FW.
# [3] = test system: Arabidopsis WT, OE At, OE Pa, OE M3 seedlings; test: NBT and DAB staining of Arabidopsis seedlings (superoxide, hydrogen peroxide); type: in vivo, Arabidopsis thaliana; settings: 100 nM, 72 h
# Procedure: (§1) 2 week-old Arabidopsis seedlings were cultured continuously in ½ MS mediums with 100 nM mesotrione and without mesotrione for 72 h, and then transferred to 3.5 mg/mL NBT staining solution (prepared with potassium phosphate buffer containing 10 mM NaN3) and soaked in vacuum for 2 min, and then placed on a shaker overnight. The NBT-stained plants were placed in a mixed solution of acetic acid:glycerol:ethanol=1:1:3 (v/v/v) and destained at 100° C. for 5 min, then reserved in a mixed solution of glycerol:ethanol=1:4 (v/v), and was used to take photos to record the test results.
# as §1, with “DAB” for “3.5 mg/mL NBT”, “solution,” for “solution (prepared with potassium phosphate buffer containing 10 mM NaN3)”, “for 7-8 hours.” for “overnight.”, “DAB-stained” for “NBT-stained”, “glycerol: ethanol=1:4” for “glycerol:ethanol=1:4”
# 2 week-old T3 generation Arabidopsis seedlings of WT, OE At, OE Pa and OE M3 were transfered to different control (½ MS medium) and treatment medium (½ MS medium containing 100 nM mesotrione) for 72 h, and then stained with NBT and DAB to detect the accumulation of reactive oxygen species.
# [4] = test system: Arabidopsis WT (Col0), OE At, OE Pa, OE M3 lines; test: Arabidopsis seed germination test on herbicide-containing 1/2 MS medium; type: in vivo, Arabidopsis thaliana; settings: 2 weeks
# Procedure: In order to evaluate the resistance of different HPPD overexpression lines to herbicides, Arabidopsis seed germination tests were performed on media containing different concentrations of herbicides. T3 generation Arabidopsis seeds and Co10 (WT) seeds were performed steam surface sterilization (concentrated HCl: NaClO=1:5, v/v) for 3 h. Seeds of OE At (OE At #1, OE At #2), OE Pa (OE Pa #1, OE Pa #2), OE M3 (OE M3 #1, OE M3 #2) and Co10 (WT) were dibbled together in ^1/2 MS medium (0.5 x MS salt, 1% sucrose and 0.8% agar) in a 24-well plate, and the medium contained different concentrations (0, 31.25, 62.5, 125, 500 and 2000 nM) of mesotrione (Sigma Aldrich, USA) and sulcotrione (Sigma Aldrich, USA). Then, the plate dibbled seeds was placed in the dark at 4° C. for 3 d, and then transferred to a growth chamber at 22° C. (16 h light/8 h dark) for 2 weeks. Three biological replicates were performed per treatment per species. After 2 weeks, the test results were photographed.
# [5] = test system: WT (William 82), OE GmHPPD and OE PaHPPD-SDM T1 soybean plants; test: Chlorophyll content and plant height of T1 generation soybean after whole plant spraying; type: in vivo; settings: 20 μM sprayed twice, 2 weeks
# Procedure: Wild type soybean William 82, T1 generation OE PaHPPD-SDM soybean and T1 generation OE GmHPPD soybean seedlings were sprayed with 20 μM mesotrione (prepared with 0.1% Tween-20) and 0.1% Tween-20 for twice, respectively. The interval between two sprays is 1 week. Two weeks after spray treatment, the total chlorophyll of the leaves was extracted and the content was determined by referring to the method of Lichtenthaler HK (1987). All experiments were repeated biologically 3 times, and the average value was taken.
# PaHPPD-SDM = PaHPPD-SDM (Pseudomonas aeruginosa, UniProt Q9I576, A156V/E349K/R282S); settings: higher doses in the range 0-60 of herbicide
# Sequence of PaHPPD-SDM (Q9I576 whole entry A156V/R282S/E349K): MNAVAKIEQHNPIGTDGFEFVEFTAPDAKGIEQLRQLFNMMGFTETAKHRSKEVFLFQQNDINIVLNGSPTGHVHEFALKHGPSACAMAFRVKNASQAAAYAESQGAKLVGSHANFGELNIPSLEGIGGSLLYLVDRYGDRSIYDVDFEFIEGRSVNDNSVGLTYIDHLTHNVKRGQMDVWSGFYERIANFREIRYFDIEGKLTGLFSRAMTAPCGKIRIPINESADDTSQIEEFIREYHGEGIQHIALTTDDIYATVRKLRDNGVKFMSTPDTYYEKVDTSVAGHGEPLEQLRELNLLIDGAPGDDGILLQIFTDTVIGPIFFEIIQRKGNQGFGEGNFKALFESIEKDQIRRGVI
# Excerpt: Specifically, the presence of tyrosine aminotransferase in E. coli DH5a can catalyze the production of p-hydroxyphenylpyruvate (4-HPP) from tyrosine, which is used as a substrate for HPPD to produce homogentisic acid (HGA). After further oxidation and polymerization, a brown substance is produced. The addition of HPPD inhibitors will inhibit this reaction, thereby reducing the production of pigment. Therefore, the gradation of pigment can be used as an inhibition index of HPPD activity. […] Through heterologous expression of HPPD mutant genes from different species in E. coli DH5α, the resistance characteristics of E. coli DH5α-mutated gene to triketone herbicides were analyzed by detecting the absorption value of pigment at 405 nm (FIGS. 2-6, 8 and 9).
# The PaHPPD mutants obtained by random mutation was cloned into E. coli cells together with wild-type PaHPPD and AtHPPD for comparation and screening.
# The bacteria solution shaking cultured overnight at 37° C. was centrifuged, and 200 μL of supernatant was transferred to a sterile 96-well plate (microplate with high throughput characteristics) using a 200 μL pipette on an ultra-clean workbench. The pigment content was measured with a microtiter plate reader at a wavelength of 405 nm (OD405 nm), and the HPPD activity was evaluated according to the size of the OD value.
# Then the obtained PaHPPD-SDM mutant was compared with its parental mutants (PaHPPD-M3, PaHPPD-DS18, and PaHPPD-DS73) to understand their ability of brown pigmentation in the presence of triketone herbicides at different doses (0-60 μM). The calculation formula of HPPD activity (%) is as follows: HPPD activity(%)=(Am/Ac)×100
# Wherein Am refers to the average value of the absorbance at a specific herbicide dose, and Ac refers to the average value of the absorbance without the herbicide.
compound,measurement,setting,value
CS(=O)(=O)c1ccc(C(=O)C2C(=O)CCCC2=O)c([N+](=O)[O-])c1 [mesotrione],"expression levels of HPPD, VTE1 and VTE3 compared with untreated seedlings","[1]; OE At, OE Pa and WT lines",inhibited to varying degrees
same,HPPD gene expression level compared with untreated seedlings,[1]; OE M3 line,basically not inhibited
same,gene expression levels of VTE1 and VTE3 compared with untreated seedlings,[1]; OE M3 line,up-regulated
same,MDA content in WT rice leaves compared with OE SDM rice leaves,[2],significantly higher
same,"accumulation of superoxide and hydrogen peroxide of OE M3 compared with WT, OE At and OE Pa",[3],significantly less; also recorded: significantly reduced
same,concentration giving albino death / severely inhibited growth,[4]; OE At (two lines) and WT,31.25 nM
same,concentration at which seedlings grow normally,"[4]; OE Pa (two lines), T3 seeds",62.5 nM
same,contents of chlorophyll a and chlorophyll b (and plant height) of treated OE PaHPPD-SDM compared with treated OE GmHPPD and wild type,[5],significant higher
same,order of plant height of treated lines,[5],OE PaHPPD-SDM>OE GmHPPD>wild-type soybean William 82
same,contents of chlorophyll a and chlorophyll b in leaves (and plant height) compared with control treatment,[5]; OE GmHPPD and wild-type William 82,significantly lower
same,contents of chlorophyll a and chlorophyll b in leaves (and plant height) compared with control,[5]; OE PaHPPD-SDM,reduced; also recorded: slightly reduced
same,plant height of treated soybean compared with control,[5]; all lines,lower
same,"resistance by HPPD activity (%) compared with WT, PaHPPD-M3, PaHPPD-DS18 and PaHPPD-DS73",PaHPPD-SDM,improved the resistance

# — patent US11952582B2, “Herbicide-resistance gene and application thereof in plant breeding” (priority 2017, dated 2024)
